From PubChem BioAssay (NCI)
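In this assay, cells in 96-well plates receive the compound at five concentrations for 48 hours. Endpoints are linearly interpolated between the surrounding concentrations. GI50 is the concentration that inhibits growth by half. TGI: concentration producing complete growth inhibition.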

What was measured:
Experiment in all cases: NCI-60 cell line screen, 48 h
COLO 205 colon = system: COLO 205 colon
OVCAR-8 ovarian = system: OVCAR-8 ovarian
NCI-H226 lung = system: NCI-H226 lung
SK-MEL-28 melanoma = system: SK-MEL-28 melanoma
RXF 393 renal = system: RXF 393 renal
SF-539 CNS = system: SF-539 CNS
OVCAR-5 ovarian = system: OVCAR-5 ovarian
SR leukemia = system: SR leukemia
SNB-75 CNS = system: SNB-75 CNS
EKVX NSCLC = system: EKVX NSCLC

Compound	GI50 (COLO 205 colon)	TGI (COLO 205 colon)	GI50 (OVCAR-8 ovarian)	TGI (OVCAR-8 ovarian)	GI50 (NCI-H226 lung)	TGI (NCI-H226 lung)	GI50 (SK-MEL-28 melanoma)	TGI (SK-MEL-28 melanoma)	GI50 (RXF 393 renal)	TGI (RXF 393 renal)	GI50 (SF-539 CNS)	TGI (SF-539 CNS)	GI50 (OVCAR-5 ovarian)	TGI (OVCAR-5 ovarian)	GI50 (SR leukemia)	TGI (SR leukemia)	GI50 (SNB-75 CNS)	TGI (SNB-75 CNS)	TGI (EKVX NSCLC)	GI50 (EKVX NSCLC)
C=CN(C)S(C)(=O)=O	> 100 µM	> 100 µM	> 100 µM	> 100 µM	> 100 µM	> 100 µM	> 100 µM	> 100 µM	> 100 µM	> 100 µM	> 100 µM	> 100 µM	> 100 µM	> 100 µM	> 100 µM	> 100 µM	> 100 µM	> 100 µM		
CCS(=O)(=O)Nc1cccc(Nc2c3cccc(C)c3nc3c(C)cccc23)c1OC	2.56 µM	> 100 µM	1.19 µM	74.5 µM	0.627 µM	4.76 µM	4.29 µM	> 100 µM	1.98 µM	13.2 µM	0.708 µM	6.23 µM	3.86 µM	41.5 µM			1 µM	22 µM		
CSc1ncnc2c1ncn2C1OC(CO)C(O)OC1O (centres undefined)		11.8 µM		52.4 µM				69.5 µM		38 µM		16.9 µM		> 23.3 µM		> 100 µM		31.8 µM	> 66.3 µM	
O=c1oc2ccc(-n3c(=O)c4ccccc4c4ccccc4c3=O)cc2c2ccccc12		> 100 µM		> 100 µM		> 100 µM		> 100 µM		> 100 µM		> 100 µM		> 100 µM				85.7 µM	> 100 µM	
O=C1c2ccccc2-c2c1c1c(O)cccc1n2-c1ccccc1	> 100 µM	> 100 µM	> 100 µM	> 100 µM	> 100 µM	> 100 µM	18.5 µM	> 100 µM					> 100 µM	> 100 µM	> 100 µM	> 100 µM			> 100 µM	> 100 µM
CCOC(=O)C(C)(C)C(O)C(C)C (centres undefined)		> 100 µM		> 100 µM				> 100 µM		> 100 µM		> 100 µM		> 100 µM		> 100 µM		> 100 µM	> 100 µM	
O=C1c2ccccc2C(=O)N1C/C=C/CO		> 100 µM		> 100 µM		> 100 µM		> 100 µM		> 100 µM		> 100 µM				> 100 µM		> 100 µM		
OCC1OC(n2cnc3c(Cl)nc(Cl)cc32)C(O)C1O (centres undefined)	> 100 µM	> 100 µM	> 100 µM	> 100 µM			> 100 µM	> 100 µM	> 100 µM	> 100 µM	> 100 µM	> 100 µM	> 100 µM	> 100 µM					> 100 µM	> 100 µM
COc1cccc2c1c(C1=C(c3cn(C)c4ccccc34)C(=O)NC1=O)cn2C	> 25 µM	> 25 µM	> 25 µM	> 25 µM	> 25 µM	> 25 µM	> 25 µM	> 25 µM	> 25 µM	> 25 µM	> 25 µM	> 25 µM	> 25 µM	> 25 µM	> 16.6 µM	> 25 µM	> 25 µM	> 25 µM		
COc1ccc(-c2c(-c3cc(OC)c(OC)c(OC)c3)noc2N)cc1	< 0.0123 µM	0.0551 µM	0.0173 µM	15.8 µM	0.0244 µM	> 100 µM	0.016 µM	> 100 µM	< 0.01 µM	19.8 µM			0.0441 µM	> 70 µM	< 0.01 µM	29.1 µM	< 0.01 µM	94.2 µM	> 100 µM	1.03 µM
COc1cc2c(cc1OC)C(=O)Cc1ccc(OC)c(OC)c1CN(C)CC2		> 100 µM		> 100 µM		> 100 µM		> 100 µM				> 100 µM		> 100 µM				> 100 µM	> 100 µM	
CCCCCCc1nc2nc(Cl)c(Cl)nc2[nH]1	8.04 µM	> 100 µM	> 100 µM	> 100 µM	7.21 µM	> 100 µM	> 100 µM	> 100 µM	7.55 µM	> 100 µM	> 100 µM	> 100 µM	> 100 µM	> 100 µM	8.98 µM	> 100 µM				
CN(C)CCCNC(=O)c1cncnc1Nc1ccc(OCc2cccc(F)c2)c(Cl)c1	1.79 µM	3.57 µM			4.27 µM	19.6 µM	1.79 µM	3.22 µM	1.51 µM	2.87 µM	1.77 µM	3.15 µM	1.67 µM	3.07 µM			1.64 µM	3.22 µM	3.15 µM	1.58 µM
Clc1cc2n[se]nc2cc1Cl				> 100 µM				> 100 µM		> 100 µM		> 100 µM		> 100 µM		> 100 µM		> 100 µM	> 100 µM	
CCOc1ccccc1NC(=O)CCc1n[nH]c(=S)o1						> 100 µM		> 100 µM				> 100 µM				> 100 µM		> 100 µM	> 100 µM	
Cc1nn(C)cc1P(=S)(c1ccccc1)c1ccccc1		> 100 µM		> 100 µM				> 100 µM		> 100 µM		> 100 µM		> 100 µM		> 100 µM		85.1 µM	> 100 µM	
Cc1ccc(-c2nc(N3CCCNCC3)c3oc(-c4ccccc4)nc3n2)cc1	1.89 µM	3.5 µM			1.82 µM	3.97 µM	1.85 µM	3.39 µM	1.75 µM	3.29 µM	1.79 µM	3.26 µM	1.9 µM	3.38 µM	0.239 µM	0.624 µM	1.41 µM	2.73 µM	3.33 µM	1.81 µM
C=C(C)[C@@H]1CC[C@]2(CO)CC[C@]3(C)[C@H](CC[C@@H]4[C@@]5(C)CCC(NCCc6ccc(O)cc6)C(C)(C)[C@@H]5CC[C@]43C)[C@@H]12 (some centres undefined)	1.12 µM	2.68 µM					1.58 µM	3 µM			1.63 µM	3.04 µM	1.59 µM	2.96 µM	0.334 µM	1.07 µM				
